# What was measured:
# [1] = Adsorption of Triton X-100 by the multilayer film of the 75 mL flexible bag (HPLC); format: physicochemical; settings: 120 minutes
# Protocol: In parallel, a negative control was carried out, repeating the experiment in a 0.5 litre glass flask filled with 316 mL of a 1% Triton X-100® solution. […] Samples were taken after 0 and 120 minutes.
# [2] = Distribution of the concentration of Triton X-100 in a 50 L bag (RP-HPLC); format: physicochemical; settings: 1% Triton X-100 in purified water
# [3] = Adsorption of polysorbate 80 and TnBP by the multilayer film of the 75 mL flexible bag (HPLC)
# [4] = Bag according to the invention, 30 min, 25±3° C.
# [5] = Bag according to the invention, 1 hour, 25±3° C.
# [6] = Bag according to the invention, 2 hours, 25±3° C.
Substance,"reduction of the concentration of Triton X-100 ([1]; 0.5 litre glass flask (negative control), 1% solution, magnetic stirring) [%]","adsorption of the Triton X-100 by the bag ([1]; 75 mL flexible bag, 1% (w/w) solution)","reduction of the concentration of Triton X-100 ([1]; 75 mL flexible bag, 1% (w/w) solution, orbital stirring, 20±5° C.) [%]",greatest difference observed between the lower and higher concentrations measured ([2]; 0 to 120 minutes) [%],difference in concentration of Triton X-100 between the upper part and the bottom of the bag ([2]; stirring 40 rpm) [%],"adsorption by the bag ([3]; 75 mL flexible bag, 2 hours, 25±3° C.)","Polysorbate 80 Concentration ([3]; Bag according to the invention, 0 min, 25±3° C.) [mg/L]","Polysorbate 80 Adsorption with respect to T0 [3, 4] [%]","Polysorbate 80 Concentration [3, 4] [mg/L]","Polysorbate 80 Adsorption with respect to T0 [3, 5] [%]","Polysorbate 80 Concentration [3, 5] [mg/L]","Polysorbate 80 Adsorption with respect to T0 [3, 6] [%]","Polysorbate 80 Concentration [3, 6] [mg/L]","Polysorbate 80 Concentration ([3]; Glass flask (negative control), 30 min) [mg/L]",concentration after 2 hours of incubation ([3]; in the bag or in the glass flask)
polyethylene glycol tert-octylphenyl ether [Triton X-100®],3.1,no significant adsorption,5,7.90,2.7,–,–,–,–,–,–,–,–,–,–
polyethylene glycol monooleate [Polysorbate 80],–,–,–,–,–,no significant adsorption,11147,−2.3,11408,−3.3,11519,−2.6,11432,10374,stable

# From US20200032163A1, “Method for the Virus Inactivation of a Preparation of Monoclonal Antibodies” (Laboratoire Francais du Fractionnement et des …, priority 2016, published 2020)
